Measured values: paper PMC8421423, “Cellular model system to dissect the isoform-selectivity of Akt inhibitors” (Nature Communications, 2021)
Values joined by “and” are separate entries in the source; they are usually repeats but may differ in a detail not shown here. Equal entries are not always repeated. Where two headings read alike, the source gives them in different places.

Tests used:
pAkt2 = test: Western blot analysis, PANC1 cells; assay type: cell-based, human; conditions: PANC1, 24-h treatment
Protocol: Cells were seeded into six-well tissue culture plates (Sarstedt) (BaF3 myr-Akt1/2/3: 10^6 cells/well, PANC1: 250.000 cells/well). […] Cell lysis was initiated by addition of 100 μL RIPA buffer (Cell Signaling Technology) per well supplemented with phosphatase and protease inhibitor cocktails (Sigma) followed by incubation on ice for 20 min. Cells were then harvested by scraping (PANC1) or centrifugation (BaF3). Whole cell lysates were cleared by centrifugation at 14,000×g/4 °C for 10 min and transferred into fresh, pre-cooled microcentrifuge tubes. Protein concentrations were determined using the Pierce BCA protein assay (Thermo) as per manufacturer’s instructions. Equal amounts of protein were separated by SDS-PAGE and transferred to Immobilon-FL PVDF membranes (Merck Millipore) using Pierce™ 1-step transfer buffer (Thermo) and the Pierce™ Power Blotter (Thermo). Membranes were washed for 5 min with ddH2O, blocked with Intercept®Blocking Buffer TBS (Li-Cor) for 1 h at room temperature, and then incubated with primary antibodies diluted in Intercept®Blocking Buffer TBS overnight at 4 °C with gentle agitation. On the next day, the membranes were washed three times with TBS-T (50 mM Tris, 150 mM NaCl, 0.05 % Tween 20, pH 7.4) for 5 min before being incubated with secondary antibodies diluted in Intercept®Blocking Buffer TBS for 1 h at room temperature with gentle agitation. Finally, the membranes were washed three times for 5 min with TBS-T and then scanned using an Odyssey®CLx imaging system (Li-Cor).

Akt2 [1] = target: T1, Akt2 (Homo sapiens, UniProt P31751); test: STK HTRF KinEASE activity-based assay (IC50)
Ba/F3^myr-Akt3 cells = test: CellTiter-Glo cell viability assay; conditions: for cell viability: CTG
Protocol: (§1) On day 0, cells were plated into white 384-well cell culture plates (Greiner Bio-One) using a Multidrop reagent dispenser (Thermo Fisher Scientific) at cell numbers that ensure linear and optimal luminescent signal intensity (Ba/F3myr-Akt1: 600 cells/well, Ba/F3myr-Akt2: 800 cells/well, Ba/F3myr-Akt3: 800 cells/well). […] Cell viability was analyzed on day 4 using the CellTiter-Glo Assay (Promega) as per the manufacturer’s instructions. […] All experimental points were measured in duplicates for each plate and were replicated in at least three plates.

Ba/F3^myr-Akt1 cells = test: CellTiter-Glo cell viability assay; conditions: for cell viability: CTG
Protocol: as §1

Akt1 [2] = target: T2, Akt1 (Homo sapiens, UniProt P31749); test: Cellular thermal shift assay (CETSA) in PANC1 cells; assay type: cell-based; set-up: purchased ProQinase #1379-0000-2
Protocol: (§2) Cells were seeded into 100 mm tissue culture plates (Sarstedt) (PANC1: 10^6 cells). After 24 h incubation, cells were treated with 1 µM of inhibitors or DMSO and were incubated for 4.5 h. Cells were washed twice with ice-cold PBS and then suspended in 1 mL PBS. Cells were collected and separated into equal volumes (100 µL). The aliquots were treated individually with different temperatures for 3 min, followed by a 3 min incubation at room temperature. Cell lysis was initiated by adding 100 µL RIPA buffer and 2 freeze-thaw cycles in liquid nitrogen. The lysates were centrifuged at 21,130×g for 20 min at room temperature. The supernatants were transferred into fresh, pre-cooled microcentrifuge tubes, and analyzed by western blot analysis as described above.

Akt3 [3] = target: T3, Akt3 (Homo sapiens, UniProt Q9Y243); test: as above; assay type: cell-based; set-up: purchased ProQinase #1578-0000-1
Protocol: as §2

Akt3 [4] = target: T3, Akt3; test: STK HTRF KinEASE activity-based assay (IC50)
Ba/F3^myr-Akt2 cells = test: CellTiter-Glo cell viability assay; conditions: for cell viability: CTG
Akt1 [5] = target: T2, Akt1; test: STK HTRF KinEASE activity-based assay (IC50)
Protocol: The biochemical half maximal inhibitory concentrations (IC50) were determined with the STK HTRF KinEASE assay (Cisbio) according to the manufactor’s instructions. Briefly: 5 µL Kinase solution and 2.5 µL inhibitor solution (8% DMSO in HTRF buffer) were incubated for 1 h before the reaction was started by addition of 2.5 µL starting solution containing ATP and substrate peptide. […] After reaction completion (Akt1: 60 min, Akt2: 20 min, Akt3: 15 min), 10 µL of stop solution were added. […] The quotient of both intensities were recorded at eight different inhibitor concentrations and data fit to a Hill 4-parameter equation with Quattro software suite (Quattro Research GmbH, Martinsried, Germany). Each reaction was performed in duplicates and at least three independent determinations of each IC50 were made.

Akt2 [6] = target: T1, Akt2; test: Cellular thermal shift assay (CETSA) in PANC1 cells; assay type: cell-based; set-up: purchased Thermo Fisher Scientific #PV3184
Protocol: as §2

[7] = CellTiter-Glo cell viability assay; assay type: cell-based, murine; conditions: mouse, parental Ba/F3 cells, CTG, parental, single replicates
parental Ba/F3 cells = test: CellTiter-Glo cell viability assay; assay type: cell-based, murine; conditions: for cell viability: CTG, parental
[8] = cell viability assay Ba/F3 myr-Akt cells, log units
[9] = CETSA PANC1, 0.3 µM, temperature 39.9
[10] = CETSA PANC1, 0.3 µM, temperature 43.5
[11] = CETSA PANC1, 0.3 µM, temperature 48.4
[12] = CETSA PANC1, 0.3 µM, temperature 53.8
[13] = CETSA PANC1, 0.3 µM, temperature 58.1
[14] = CETSA PANC1, 0.3 µM, temperature 61.4
[15] = CETSA PANC1, 0.3 µM, temperature 65.6
[16] = CETSA PANC1, 0.3 µM, temperature 70.9
[17] = CETSA PANC1, 0.3 µM, temperature 76
[18] = CETSA PANC1, 0.3 µM, temperature 79.9
[19] = CETSA PANC1, 1 µM, temperature 39.9
[20] = CETSA PANC1, 1 µM, temperature 43.5
[21] = CETSA PANC1, 1 µM, temperature 48.4
[22] = CETSA PANC1, 1 µM, temperature 53.8
[23] = CETSA PANC1, 1 µM, temperature 58.1
[24] = CETSA PANC1, 1 µM, temperature 61.4
[25] = CETSA PANC1, 1 µM, temperature 65.6
[26] = CETSA PANC1, 1 µM, temperature 70.9
[27] = CETSA PANC1, 1 µM, temperature 76
[28] = CETSA PANC1, 1 µM, temperature 79.9

T2 sequence (P31749 whole entry): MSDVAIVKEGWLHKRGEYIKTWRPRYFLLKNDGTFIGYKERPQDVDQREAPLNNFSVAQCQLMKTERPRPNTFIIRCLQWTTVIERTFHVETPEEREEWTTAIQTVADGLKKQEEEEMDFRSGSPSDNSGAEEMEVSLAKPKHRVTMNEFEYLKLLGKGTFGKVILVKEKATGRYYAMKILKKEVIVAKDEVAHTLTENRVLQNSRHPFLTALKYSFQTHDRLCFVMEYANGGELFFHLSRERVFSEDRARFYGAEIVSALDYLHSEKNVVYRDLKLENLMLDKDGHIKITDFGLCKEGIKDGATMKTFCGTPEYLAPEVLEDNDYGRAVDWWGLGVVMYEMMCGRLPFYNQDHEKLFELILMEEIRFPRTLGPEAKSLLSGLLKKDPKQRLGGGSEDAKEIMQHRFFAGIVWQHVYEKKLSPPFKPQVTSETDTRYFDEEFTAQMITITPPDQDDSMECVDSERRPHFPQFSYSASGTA
T1 sequence (P31751 whole entry): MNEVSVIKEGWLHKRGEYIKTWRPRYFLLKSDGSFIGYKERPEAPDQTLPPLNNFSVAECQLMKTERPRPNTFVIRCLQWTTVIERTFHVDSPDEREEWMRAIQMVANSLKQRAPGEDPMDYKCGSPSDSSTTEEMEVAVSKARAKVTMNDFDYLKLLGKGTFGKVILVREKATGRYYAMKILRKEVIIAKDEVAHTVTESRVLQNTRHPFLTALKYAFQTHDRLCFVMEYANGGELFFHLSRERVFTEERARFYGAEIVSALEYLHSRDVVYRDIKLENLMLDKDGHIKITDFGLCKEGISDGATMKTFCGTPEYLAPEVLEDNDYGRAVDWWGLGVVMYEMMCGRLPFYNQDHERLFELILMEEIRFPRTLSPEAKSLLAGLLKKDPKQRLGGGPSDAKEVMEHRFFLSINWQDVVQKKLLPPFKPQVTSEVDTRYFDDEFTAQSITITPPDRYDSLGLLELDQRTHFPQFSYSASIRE
T3 sequence (Q9Y243 whole entry): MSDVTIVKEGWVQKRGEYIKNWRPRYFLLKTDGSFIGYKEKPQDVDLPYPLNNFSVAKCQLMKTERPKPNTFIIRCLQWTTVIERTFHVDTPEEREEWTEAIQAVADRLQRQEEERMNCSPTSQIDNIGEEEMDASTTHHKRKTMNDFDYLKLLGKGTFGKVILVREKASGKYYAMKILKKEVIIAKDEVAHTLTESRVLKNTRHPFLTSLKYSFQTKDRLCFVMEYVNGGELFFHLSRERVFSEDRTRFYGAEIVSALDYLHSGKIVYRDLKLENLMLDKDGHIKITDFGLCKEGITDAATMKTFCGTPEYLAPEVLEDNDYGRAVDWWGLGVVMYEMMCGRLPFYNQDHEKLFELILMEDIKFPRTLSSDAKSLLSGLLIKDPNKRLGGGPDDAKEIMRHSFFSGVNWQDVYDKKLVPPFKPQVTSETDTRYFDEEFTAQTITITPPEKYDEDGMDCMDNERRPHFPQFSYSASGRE

SMILES: C=CC(=O)Nc1ccc2[nH]c(=O)n(C3CCN(Cc4ccc(-c5ncccc5-c5ccccc5)cc4)CC3)c2c1 [compound 1]
- pAkt2 level (immunoblot) (pAkt2): downregulation of pAkt1 and pAkt2
- IC50 (Akt2 [1]; HTRF IC50 Akt2, Mean, mean of replicates): 599 nM
- IC50 (Akt2 [1]; HTRF IC50 Akt2, individual determinations, single replicates): 658 nM and 512 nM and 626 nM
- IC50 (Akt2 [1]; IC50 Akt2, HTRF, ATP at KM, 1 h preincubation): 599 ± 63 nM
- loss of activity for Akt2 compared to Akt1 (Akt2 [1]; biochemical IC50): 10 fold
- cell viability (Ba/F3^myr-Akt3 cells; myr-Akt3, 0.1 nM, single replicates, 0.0001 µM): 105.8 % of control and 97.9 % of control
- cell viability (Ba/F3^myr-Akt3 cells; myr-Akt3, 5000 nM, single replicates, 5 µM): 61.6 % of control and 92.9 % of control and 84.6 % of control
- EC50 (Ba/F3^myr-Akt3 cells; Mus musculus, read-out: CTG BaF3myr-Akt3, Mean, mean of replicates): > 30000 nM
- EC50 (Ba/F3^myr-Akt3 cells; Mus musculus, read-out: CTG BaF3myr-Akt3, individual determinations, single replicates): > 30000 nM
- EC50 (Ba/F3^myr-Akt3 cells; Mus musculus, read-out: EC50 BaF3myr-Akt3, CTG): > 30000 nM
- viability at 0.0001 µM (Ba/F3^myr-Akt3 cells; Mus musculus, read-out: cell viability, CTG, myr-Akt3, 0.1 nM, single replicates): 103%
- Log ratio EC50 [Akt] / EC50 [Akt], Akt3 / Akt2 (Ba/F3^myr-Akt3 cells; [8]): -0.83
- EC50 (Ba/F3^myr-Akt3 cells; read-out: CTG BaF3myr-Akt3, individual determinations, single replicates): > 30000 nM
- cell viability (Ba/F3^myr-Akt1 cells; myr-Akt1, 0.1 nM, single replicates, 0.0001 µM): 91.2 % of control and 96.3 % of control
- cell viability (Ba/F3^myr-Akt1 cells; myr-Akt1, 5000 nM, single replicates, 5 µM): 6.7 % of control and 13.9 % of control and 18.5 % of control
- EC50 (Ba/F3^myr-Akt1 cells; Mus musculus, read-out: CTG BaF3myr-Akt1, Mean, mean of replicates): 1790 nM
- viability at 0.0001 µM (Ba/F3^myr-Akt1 cells; Mus musculus, read-out: cell viability, CTG, myr-Akt1, 0.1 nM, single replicates): 85.5%
- Log ratio EC50 [Akt] / EC50 [Akt], Akt1 / Akt2 (Ba/F3^myr-Akt1 cells; [8]): -0.40
- EC50 (Ba/F3^myr-Akt1 cells; read-out: CTG BaF3myr-Akt1, individual determinations, single replicates): 1190 nM and 1500 nM and 2670 nM
- tAkt1 % (Akt1 [2]; [9]): 100.00%
- tAkt1 % (Akt1 [2]; [10]): 101.52%
- tAkt1 % (Akt1 [2]; [11]): 79.62%
- tAkt1 % (Akt1 [2]; [12]): 74.15%
- tAkt1 % (Akt1 [2]; [13]): 68.37%
- tAkt1 % (Akt1 [2]; [14]): 51.95%
- tAkt1 % (Akt1 [2]; [15]): 36.13%
- tAkt1 % (Akt1 [2]; [16]): 22.45%
- tAkt1 % (Akt1 [2]; [17]): 11.95%
- tAkt1 % (Akt1 [2]; [18]): 0.00%
- tAkt1 % (Akt1 [2]; [19]): 100.00%
- tAkt1 % (Akt1 [2]; [20]): 88.73%
- tAkt1 % (Akt1 [2]; [21]): 82.43%
- tAkt1 % (Akt1 [2]; [22]): 73.59%
- tAkt1 % (Akt1 [2]; [23]): 56.69%
- tAkt1 % (Akt1 [2]; [24]): 2.43%
- tAkt1 % (Akt1 [2]; [25]): 11.71%
- tAkt1 % (Akt1 [2]; [26]): 5.41%
- tAkt1 % (Akt1 [2]; [27]): 0.00%
- tAkt1 % (Akt1 [2]; [28]): 0.00%
- thermal stabilization of Akt1 (CETSA, in words) (Akt1 [2]; PANC1, 0.3 µM): preferred stabilization of Akt1
- thermal stabilization of Akt1 (CETSA, in words) (Akt1 [2]; PANC1, 1 µM): losing this selectivity
- tAkt3 % (Akt3 [3]; [9]): 100.00%
- tAkt3 % (Akt3 [3]; [10]): 53.46%
- tAkt3 % (Akt3 [3]; [11]): 48.12%
- tAkt3 % (Akt3 [3]; [12]): 46.68%
- tAkt3 % (Akt3 [3]; [13]): 22.77%
- tAkt3 % (Akt3 [3]; [14]): 21.02%
- tAkt3 % (Akt3 [3]; [15]): 20.86%
- tAkt3 % (Akt3 [3]; [16]): 9.30%
- tAkt3 % (Akt3 [3]; [17]): 7.63%
- tAkt3 % (Akt3 [3]; [18]): 0.00%
- tAkt3 % (Akt3 [3]; [19]): 100.00%
- tAkt3 % (Akt3 [3]; [20]): 12.48%
- tAkt3 % (Akt3 [3]; [21]): 11.45%
- tAkt3 % (Akt3 [3]; [22]): 15.32%
- tAkt3 % (Akt3 [3]; [23]): 13.90%
- tAkt3 % (Akt3 [3]; [24]): 14.16%
- tAkt3 % (Akt3 [3]; [25]): 2.70%
- tAkt3 % (Akt3 [3]; [26]): 0.26%
- tAkt3 % (Akt3 [3]; [27]): 0.00%
- tAkt3 % (Akt3 [3]; [28]): 0.00%
- IC50 (Akt3 [4]; HTRF IC50 Akt3, individual determinations, single replicates): 5630 nM and 8200 nM and 6050 nM
- IC50 (Akt3 [4]; IC50 Akt3, HTRF, ATP at KM, 1 h preincubation): 6630 ± 1130 nM
- loss of activity for Akt3 compared to Akt1 (Akt3 [4]; biochemical IC50): 100 fold
- cell viability (Ba/F3^myr-Akt2 cells; myr-Akt2, 0.1 nM, single replicates, 0.0001 µM): 96.6 % of control and 111.8 % of control
- cell viability (Ba/F3^myr-Akt2 cells; myr-Akt2, 5000 nM, single replicates, 5 µM): 74.8 % of control and 79.6 % of control
- EC50 (Ba/F3^myr-Akt2 cells; Mus musculus, read-out: CTG BaF3myr-Akt2, Mean, mean of replicates): 4470 nM
- viability at 0.0001 µM (Ba/F3^myr-Akt2 cells; Mus musculus, read-out: cell viability, CTG, myr-Akt2, 0.1 nM, single replicates): 105%
- viability at 5 µM (Ba/F3^myr-Akt2 cells; Mus musculus, read-out: cell viability, CTG, myr-Akt2, 5000 nM, single replicates): 84.5%
- EC50 (Ba/F3^myr-Akt2 cells; read-out: CTG BaF3myr-Akt2, individual determinations, single replicates): 6330 nM and 5560 nM and 1520 nM
- IC50 (Akt1 [5]; HTRF IC50 Akt1, individual determinations, single replicates): 43.9 nM and 72.2 nM and 42.8 nM
- IC50 (Akt1 [5]; IC50 Akt1, HTRF, ATP at KM, 1 h preincubation): 53 ± 13 nM
- Log ratio IC50 [Akt] / IC50 [Akt], Akt1 / Akt2 (Akt1 [5]; biochemical activity based assay, log units): -1.05
- tAkt2 % (Akt2 [6]; [9]): 100.00%
- tAkt2 % (Akt2 [6]; [10]): 64.53%
- tAkt2 % (Akt2 [6]; [11]): 56.84%
- tAkt2 % (Akt2 [6]; [12]): 46.79%
- tAkt2 % (Akt2 [6]; [13]): 50.34%
- tAkt2 % (Akt2 [6]; [14]): 34.71%
- tAkt2 % (Akt2 [6]; [15]): 11.57%
- tAkt2 % (Akt2 [6]; [16]): 0.00%
- tAkt2 % (Akt2 [6]; [17]): 3.97%
- tAkt2 % (Akt2 [6]; [18]): 0.00%
- tAkt2 % (Akt2 [6]; [19]): 100.00%
- tAkt2 % (Akt2 [6]; [20]): 102.86%
- tAkt2 % (Akt2 [6]; [21]): 75.10%
- tAkt2 % (Akt2 [6]; [22]): 33.02%
- tAkt2 % (Akt2 [6]; [23]): 70.90%
- tAkt2 % (Akt2 [6]; [24]): 3.44%
- tAkt2 % (Akt2 [6]; [25]): 7.92%
- tAkt2 % (Akt2 [6]; [26]): -2.39%
- tAkt2 % (Akt2 [6]; [27]): 37.12%
- tAkt2 % (Akt2 [6]; [28]): 0.00%
- viability at 3 days, 0.0001 µM ([7]; 0.1 nM, read-out: cell viability): 100%
- viability at 3 days, 5 µM ([7]; 5000 nM): 106%
- cell viability (parental Ba/F3 cells; 0.1 nM, single replicates, 0.0001 µM): 107.4 % of control and 103.8 % of control
- cell viability (parental Ba/F3 cells; 5000 nM, single replicates, 5 µM): 99.2 % of control and 101.9 % of control
- EC50 (parental Ba/F3 cells; Mus musculus, BaF3, parental cells, mean of replicates, read-out: CTG BaF3, Mean): 6890 nM
- EC50 (parental Ba/F3 cells; Mus musculus, BaF3, parental cells, single replicates, read-out: CTG BaF3, individual determinations): 7690 nM
- EC50 (parental Ba/F3 cells; parental cells, single replicates, read-out: CTG BaF3, individual determinations): 6990 nM and 6000 nM
